According to patent US5874461A, “Use of Nebivolol as an anti-atherogenic” (priority 1995, dated 1999):
Read-outs that look alike come from different tables or passages of the source.

Columns and labels:
C6 glioma cells [1] = assay: Protection of C6 glioma cells from glutathione depletion-mediated oxidative stress (toxicity, LDH assay); type: cell-based
Description: (§1) Competitive inhibition by glutamate of cystine uptake in certain cells leads to glutathione depletion and oxidative stress. This oxidative stress model has been described for glial C6 glioma cells (Kato et al., 1992. A mechanism for glutamate toxicity in the C6 glioma cells involving inhibition of cystine uptake leading to glutathione depletion. Neurosci. 48:903-914) and for the neuronal cell line N18RE105 (Murphy et al., 1989. Glutamate toxicity in a neuronal cell line involves inhibition of cystine transport leading to oxidative stress. Neuron 2:1547-1558).
(§2) Cell culture: The C6 glioma cell line (American Type Culture Collection, CCL 107) was cultivated in DMEM supplemented with 2 or 4 mM glutamine, 1 mM pyruvate and 5 or 10% heat-inactivated foetal calf serum. Cultures were maintained at 37° C. in an air/5~10% CO2, water saturated atmosphere.
(§3) Glutathione depletion and evaluation of drugs as antioxidants: Experiments were carried out with cultures plated at 30,000~50,000 cells/cm^2 in 24-well culture plates (for toxicity and lipid peroxide measurements) or at 136,000 cells/cm^2 in 96-well culture plates (for GSH determination). After 8-24 hr, the cultures were switched to culture medium in the absence or presence of the cystine uptake inhibitor glutamate at a final concentration of 10 mM. In order to test drugs for inhibition of oxidative stress, the drug was added together with glutamate (final concentration of solvent was 0.01% hydroxypropyl-β-cylodextrin, 0.1% DMSO). Intracellular glutathione levels were measured after 6~8 hr, lipid peroxides were measured after 14~20 hr, and toxicity and protection were analysed after 48 hr using an LDH assay according to the method of Bergmeyer and Bernt (UV-assay with pyruvate and NADH. In: Methods of Enzymatic Analysis. 1974. H. U. Bergmeyer, ed. Acad. Press, New York, 2nd Ed., pp 574-579).

human LDL = assay: In vitro oxidation of human LDL (Cu-induced conjugated diene formation at 234 nm); type: biochemical
Method: In vitro oxidation of human LDL Human venous blood was collected on EDTA (2.68 mM final concentration). Plasma was isolated by centrifugation. NaBr (37.3 mg/ml) was added and solubulized (final density 1.036 g/ml). Centrifuge tubes were first filled to a level corresponding to 2/3 of their maximal volume, further filled with a NaBr solution of 1.036 g/ml and then centrifuged for 18 hours at 45000 rpm in a 50 Ti rotor (Beckmann). After centrifugation, floating lipoproteins were discarded. The remaining solution was adjusted to a density of 1.055 g/ml. Filling of the centrifuge tubes and centrifugation were repeated as described above. After centrifugation, floating LDL was dialysed against a buffer containing 127 mM NaCl, 8 mM Na2 HPO4.2H2 O, 2.7 mM KCl and 1.47 mM KH2 PO4 at pH 7.4. After dialysis, LDL was filtered though a Millipore filter (0.45 μM) and protein content was determined. A dilution of 25 μg/ml was prepared with a millipored dialysis buffer. Oxidation was determined in a Pharmacia Ultraspec III spectrophotometer. Conjugated diene formation was registered at 234 nm. Two μl of a drug or solvent (DMSO) were added to Eppendorf tubes followed by 1 ml of LDL (25 μg/ml) and these substances were gently mixed and centrifuged for 1 min at 13000 g. The solution was pipetted in a Quartz cuvet that was thermostatised in the spectrophotometer at 37° C. After equilibration, the oxidation reaction was started by the addition of CuSO4 (final concentration 10 μM). Absorbance was measured every 3 minutes during the time course of the experiment. The absorbance at 234 nm was divided into three phases: a lag phase, a propagation phase and a decomposition phase (FIG. 1). The lag phase was defined as the intercept with the baseline of the tangent of the slope of the absorbance curve of the propagation phase. The rate of oxidation was defined as the tangent of the slope. Tmax was defined as the time required to attain the maximum absorbance between the propagation and the decomposition phase. The absorbance at tmax minus the absorbance at to was taken as an indicator of the total amount of dienes formed. To verify the reproducibility of the assay, a reference LDL sample was prepared and kept in darkness under nitrogen at 4° C. This reference sample was included in every oxidation experiment. LDL was isolated from 23 subjects. Plasma cholesterol ranged from 156 to 278 mg/dl (mean 213 mg/dl), triglycerides ranged from 47 to 328 mg/dl (mean 191 mg/dl) and phospholipids ranged from 178 to 327 mg/dl (mean 231 mg/dl).

[2] = tested on: primary embryonic hippocampal cultures; assay: In vitro neuroprotection against nitric oxide and superoxide radicals (inhibition of LDH release); type: cell-based, rats; settings: for inhibition at 1 µM / inhibition at 0.1 µM: Rattus norvegicus, read-out: % neuroprotection, mean ± SD; for inhibition at 1 µM: 10^-6 M; for inhibition at 0.1 µM: 10^-7 M
Method: Primary embryonic hippocampal cultures were prepared essentially as described previously (Pauwels et al., Van Aschouw, H. P., Peeters, L., Moeremans, M., Leysen, J. E. (1992) Chronic treatment with sabeluzole protects cultured rat brain neurons from the neurotoxic effects of excitatory amino acids. Synapse, 12:271-280). Hippocampal formations of rats at embryonic day 17 were dissected and dissociated in 0.05% trypsin, 0.1 mg/ml DNase I in DMEM (Dulbecco Modified Eagle Medium). Heat-inactivated horse serum (HS) was added to a concentration of 4%, and the cells were centrifuged, washed with DMEM, and resuspended in DMEM/Ham's F12 (3:1) containing 10% HS. The cells were plated at a density of 4×10^5 cells/cm^2 in poly L-lysine (0.001%) precoated multiwell-24 plates. On day 1 in culture, the medium was changed to chemically defined CDM-R12 medium (DMEM-HEPES/Ham's F12 (3:1) containing 0.26% bovine serum albumin, 30 nM sodium selenite, 3 nM 3,3',5 triiodo-L-thyronine, 0.35 μM retinol, 0.3 μM retinol acetate, 2.3 μM DL-a-tocopherol, 2.1 μM DL-a-tocopherol acetate, 3.6 μM linolenic acid, 3.6 μM linoleic acid, 0.125% human transferrin, […], 57.7 nM corticosterone, 49 U/I insulin, 0.4 μM biotin, 10 μM L-carnitine, 83 μM D(+)-galactose, 3.3 μM glutathione, 10 μM ethanolamine, 0.1 mM putrescine; Romijn, H. J., van Huizen, F., Wolters, P. S. (1984) Towards an improved serum-free, chemically defined medium for long-term culturing of cerebral cortex tissue. Neurosci. Behav. Rev., 8:301-334). Acute and prolonged pretreatment of the, cultures was essentially as described previously (Pauwels et al., 1992). Drugs were dissolved, and diluted in 10% or 1% hydroxypropyl-β-cyclodextrin such that the final concentrations of the solvent in the acute and chronic exposures were 0.1% and 0.01% respectively. Compound A as used in the following examples is [(RRSR)+(RRRS)+(SSSR) +(SSRS)]-α-[[[2-(chroman-2-yl)-2-hydroxy-ethyl]amino]methyl]-6-hydroxy-2-chromanmethanol ethanedioate (1:1).
For acute treatment, drug, or solvent was added to the cultures on day 7. After 20 min the medium was replaced with 200 μl chemically defined DMEM medium (the same composition of CDM-R12 medium but without Ham's F12) (control), or chemically defined DMEM medium containing the oxidative stress trigger. Oxidative stress triggers used were 1 mM sodium nitroprusside (SNP, a nitric oxide radical generating compound), or 7.5-10 mM diethyldithiocarbamate (DDTC, a superoxide dismutase inhibitor) and the test compound.
For prolonged pretreatment experiments, drug (concentration range 0.1 nM-10 μM) was added to the serum-free medium on days 1 and 4 of the culture. On day 7, the cultures were washed once with DMEM, and incubated with 0.2 ml chemically defined DMEM medium for 2 h at 37° C. The cells were washed and the medium was replaced by 0.2 ml chemically defined DMEM medium (control), or chemically defined DMEM medium containing the oxidative stress trigger (se above).
For both the acute experiment and the prolonged pretreatment experiment, extracellular and intracellular LDH (lactate dehydrogenase) activities were measured spectrophotometrically at 340 nm with an EPOS Analyzer 5060, according to the method of Bergmeyer (Bergmeyer, H. U. (1974) Biochemical reagents. In: Methods of Enzymatic Analysis. H. U. Bergmeyer, eds. Academic Press, New York, 2nd Ed., pp. […]). Extracellular LDH activity in the culture medium and cytoplasmic LDH activity measured after lysis of the cells in 1 ml H2 O, were used to calculate total LDH activity and % released LDH. % Neuroprotection refers to % inhibition of LDH release, where oxidative stress trigger-induced LDH release is defined as 0% protection, and basal (control) level of LDH release is defined as 100% protection.
Neuronal primary hippocampal cultures were grown in CDM-R12 medium for 7 days. Test compounds were either administered on days 1 and 4 of culture (prolonged pretreatment) or on day 7 of culture (acute treament). […]

C6 glioma cells [3] = assay: Fluorescence measurement of intracellular peroxides in C6 glioma cells after glutamate; type: cell-based
Description: as §1, §2, §3
Fluorescence measurement of intracellular peroxides: Formation of intracellular peroxides was detected using 6-carboxy-2',7'-dichlorodihydrofluorescin diacetate, di(acetoxymethyl ester) (C-DCDHF, Molecular Probes). C-DCDHF was dissolved in DMSO at a concentration of 10 mM and stored at -70° C. under nitrogen. After exposure of the culture to the glutathione depleting agents, the cells were loaded with 10 μM C-DCDHF for one hour at 37° C. Medium was aspirated off, PBS was added to the cells, and plates were read in a Cytofluor II microplate reader (PerSeptive Biosystems). Excitation and emission wavelength were selected with a 485/530 nm filter pair. The results were expressed in relative fluorescence units/μg protein.

C6 glioma cells [4] = assay: GSH content in C6 glioma cultures after glutamate; type: cell-based
Description: as §1, §2, §3
Determination of GSH content in C6 glioma cultures: GSH levels were analysed by a micromethod, essentially as described by Vandeputte et al. (A microtiterplate assay for total glutathione and glutathione disulfide contents in cultured/isolated cells: performance study of a new miniaturised protocol. 1994. Cell Biol. Toxicol. 10:415-421), with a modification in the washing and homogenisation procedures. Cells (in 96-well plates) were washed with PBS, were homogenised in 50 μl 10 mM HCl containing 1.3% 5-sulfosalicylic acid, and the homogenate was centrifuged at 1200×g for 10 min at 4° C. Forty μl of the supernatant was transferred to a well of a 96-well plate and 200 μl reagent (1 mM 5,5'-dithiobis-(2-nitrobenzoic acid), 0.34 mM NADPH and 6.3 mM EDTA in 143 mM phosphate buffer pH 7.4) was added. After 5 min equilibration to room temperature the reaction was started by adding 40 μl glutathione reductase (8.5 IU/ml 143 mM phosphate buffer, 6.3 mM EDTA pH 7.4). NADPH oxidation was followed at 414 nm for 5 minutes with a Multiskan MCC/340 (Labsystems), and the change in absorbance (DA) per min was calculated. The glutathione content was deduced from a standard curve ranging from 0.2 to 2 nmol commercial GSH per test (DA/min plotted versus concentration).

[5] = DDTC trigger, prolonged pretreatment
[6] = SNP trigger, prolonged pretreatment
[7] = glutamate 10 mM, without or with compound 1 μM

**Q.** C[C@]12N[C@H](Cc3ccccc31)c1ccccc12 [MK801, reference compound] was tested. Which “cytoplasmic LDH release (glutamate toxicity)” value (C6 glioma cells [1]; data not shown) did it give?
**A.** not prevented

**Q.** Oc1ccc2c(c1)CCC(C(O)CNCC(O)C1CCc3ccccc3O1)O2 (stereo not drawn) [[(RSSS)+(RSRR)+(SRSS)+(SRRR)]-α-[[[2-(chroman-2-yl)-2-hydroxyethyl]amino]-methyl]-6-hydroxy-2-chroman-methanol ethanedioate (1:1)] was tested. Which Tmax (human LDL; 2 μM, FIG. 2) did it give?
**A.** increased

**Q.** And the lag time (human LDL; 2 μM, FIG. 2)?
**A.** increased

**Q.** And the rate of oxidation (human LDL; 2 μM, FIG. 2)?
**A.** decreased

**Q.** How did the Tmax (human LDL; 2 μM, FIG. 2) turn out when Oc1ccc2c(c1)CCC(C(O)CNCC(O)C1CCc3cc(O)ccc3O1)O2 (stereo not drawn) [[(SRSR)+(SRRS)+(RSSR)] -α,α'-iminobis(methylene)bis[6-hydroxy-2-chromanmethanol]] was run?
**A.** increased

**Q.** And the lag time (human LDL; 2 μM, FIG. 2)?
**A.** increased

**Q.** What about the rate of oxidation (human LDL; 2 μM, FIG. 2) of the same compound?
**A.** decreased

**Q.** What does the source list for COc1ccccc1OCCNCC(O)COc1cccc2[nH]c3ccccc3c12 (stereo not drawn) [carvedilol, reference compound]?
**A.** inhibition at 1 µM ([2]; DDTC trigger, acute treatment): < 25%; inhibition at 0.1 µM ([2]; DDTC trigger, acute treatment): < 25%; inhibition at 1 µM [2, 5]: < 25%; inhibition at 0.1 µM [2, 5]: < 25%; inhibition at 1 µM ([2]; SNP trigger, acute treatment): < 25%; inhibition at 0.1 µM ([2]; SNP trigger, acute treatment): < 25%; inhibition at 1 µM [2, 6]: < 25%; inhibition at 0.1 µM [2, 6]: < 25%; neuroprotection against DDTC or SNP ([2]; one or the other treatment paradigm): not observed

**Q.** For N[C@@H](CCC(=O)O)C(=O)O [glutamate, reference compound], which “increase in toxic intracellular peroxides” value (C6 glioma cells [3]; 10 mM glutamate) is on record?
**A.** ~6 fold

**Q.** What about the “Intracellular peroxides (mean ± SD, n)” value (C6 glioma cells [3]; [7]) of the same compound?
**A.** 525 ± 57 Relative fluorescence units/μg

**Q.** What about the cytotoxicity at 10000 µM (C6 glioma cells [1]; Rattus norvegicus, C6 glioma, 48 h, read-out: LDH release, % of total LDH) of the same compound?
**A.** 93.2 ± 1.3%

**Q.** And the intracellular glutathione levels (C6 glioma cells [4]; 10 mM glutamate, 6 hr or more)?
**A.** sharp reduction in intracellular glutathione levels

**Q.** And the GSH content (C6 glioma cells [4]; [7])?
**A.** 296 ± 26 pmol/well

**Q.** Which Tmax (human LDL; 20 μM vitamin E, compared with 2 μM hydroxymetabolites of nebivolol) does the source give for Cc1c(C)c2c(c(C)c1O)CCC(C)(CCCC(C)CCCC(C)CCCC(C)C)O2 (stereo not drawn) [vitamin E, α-tocopherol, reference compound] here?
**A.** close to the tmax for the 2 μM hydroxymetabolites of nebivolol

**Q.** What about the anti-oxidant effect (human LDL; concentration lower than 10 μM (results not shown)) of the same compound?
**A.** did not show any anti-oxidant effect

**Q.** What about the “antioxidative effect on human LDL” value (human LDL; in vitro) of the same compound?
**A.** delay the oxidation of LDL

**Q.** And the initial absorbance (human LDL; vitamin E)?
**A.** not affected

**Q.** What about the rate of oxidation (human LDL; vitamin E) of the same compound?
**A.** not affected

**Q.** What about the total amount dienes (human LDL; vitamin E) of the same compound?
**A.** not affected
